The source of these data is PMC8854719, “Phase 1A/1B dose-escalation and -expansion study to evaluate the safety, pharmacokinetics, food effects and antitumor activity of pamiparib in advanced solid tumours” (British Journal of Cancer, 2021).

Series [1] has as its system poly(ADP-ribose [PAR]) formation in peripheral blood mononuclear cells (PBMCs). Briefly: PAR inhibition in PBMCs (ELISA). It is filed as in vivo. The conditions noted are these: Homo sapiens, PBMC; sustained at doses of 10 mg BID or higher. The protocol: Pamiparib in plasma was measured using a validated liquid chromatography-tandem–mass spectrometry assay with a lower limit of quantification of 1.0 ng/mL. The collection schedule for blood samples used to assess the PK profile is presented in the Supplemental Appendix. Summary PK parameters, including area under the concentration-time curve from time 0 to 9 h (AUC0-9) or infinity (AUC0-inf), maximal plasma concentration (Cmax) and time to maximal plasma concentration (Tmax), were estimated. The pharmacodynamic (PD) activity of pamiparib was explored through the evaluation of poly(ADP-ribose [PAR]) formation in peripheral blood mononuclear cells (PBMCs) after pamiparib administration. The schedule for blood sample collection (PK and PBMCs) and additional assessment information for PAR levels in PBMCs and pharmacodynamic activity is presented in the Supplemental Appendix. Antitumor activity was assessed by radiographic imaging (computed tomography or magnetic resonance imaging) during screening, within 28 days of first pamiparib dose, every 6 weeks in the first 12 months and every 9 weeks thereafter.
Time-matched blood samples (PK and PBMCs) were obtained on Day 1 (predose and 4 hours postdose) and Day 17 (4 hours postdose) of Cycle 1. The PAR levels in PBMCs were measured by a validated ELISA assay using a commercial PARP pharmacodynamic assay kit (Trevigen, Gaithersburg, MD). […]
In general terms: In an ELISA, binding on a coated surface is turned into a signal by an enzyme label.

For series [2], the system named is BCRP (breast cancer resistance protein). More on the design: method as in PMID 32652442. The conditions noted are these: cited from earlier work.
Details of series [3]: method as in PMID 33128299. The conditions noted are these: humans; current study and Phase 1 study in ovarian cancer; cited from earlier work.

As a reminder, the inhibition is the drop in the measured response relative to a control, in per cent. Low readings indicate a weak effect, high ones a strong effect. Consider `C[C@]12CCCN1CC1=NNC(=O)c3cc(F)cc4[nH]c2c1c34` [pamiparib], for which the inhibition at 10 mg in series [1] was approximately 80%. In addition, in series [2], the “Substrate of BCRP” value is given as “not a substrate”. For the same compound, the Bioavailability entry in series [3] is reported as “high, with near-complete absorption”.
